Our source for the EC50 values is PubChem BioAssay AID1902 (Broad Institute, 2009).

Activity calls are given as the source filed them.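 The calls were made as follows: active = EC50 no more than a set limit of log units above the highest dose; inactive = the rest.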 Bounds are passed on as bounds.

The experiment has as its target S. pyogenes SKKanGAS, kanamycin survival, BacTiterGlo, 6 h. As to the kind of experiment: SKKanGAS survival reduction under kanamycin, dose response, streptokinase promoter inhibitor project, SKKanGAS strain, luminescence, dose confirmation (AID 1902).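 Also: lower survival reflects blocked streptokinase promoter driving kanamycin resistance gene.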

As for `CCCCCCCCOC(=O)C1=C(C)Nc2nnnn2C1c1cccs1` (stereo unspecified), the EC50 is 3.45 µM.

Turning to `CCOc1ccc(C)cc1S(=O)(=O)NC1CCCCCC1`, the EC50 is > 15 µM (inactive).

In the case of `CCC(NC(=S)NC1CCCCC1)c1ccc(C(C)C)cc1` (stereo unspecified), the EC50 is 5.2 µM.

Consider `Cn1c(=O)c(C(=O)NNC(=O)c2ccccc2F)c(O)c2ccccc21`, for which the EC50 was 4.25 µM.

`Cc1c(Cc2ccccc2)c(=O)oc2cc(OCc3ccc(C(=O)O)cc3)ccc12`: the EC50 was 5.9 µM.

On to `CC(C)(C)C1CCC2(CC1)C(C#N)=C(SCC(=O)Nc1ccccc1)NC(=O)C2C#N` (stereo unspecified), for which the concentration giving a half-maximal response (EC50) was 4.25 µM.

For `CCCCn1c(-c2ccco2)nc2oc3ccccc3c(=O)c2c1=O`, the EC50 was 15.1 µM.

Consider `O=C(Nc1nc(N2C(=O)c3ccccc3C2=O)n(-c2ccccc2)n1)c1ccc(Cl)cc1`, for which the EC50 was 10.3 µM.

Regarding `COc1ccc(CCN2C(=O)c3[nH]nc(-c4ccccc4O)c3C2c2cccc(Cl)c2)cc1` (stereo unspecified), the EC50 was 7.71 µM.

For `O=C(Nc1nc2ccccc2n1Cc1ccccc1)c1ccco1`, the EC50 was 2.91 µM.

For the compound `Oc1[nH]c2ccccc2c1N=NC(=S)N1CCOCC1`, the EC50 is 0.273 µM.

In the case of `CCCOc1ccc(C(=O)NNC(=S)NC(=O)c2cc(-c3ccc(Cl)cc3)nc3ccccc23)cc1`, the EC50 was less than 0.06 µM.

On to `Cc1cccc(/C=N/NC(=O)c2ccc3c(c2)OCCO3)c1O`, for which the EC50 is 4.39 µM.

On to `O=c1c2cc(-c3ccccc3)sc2nc2n1CCC2`, for which the EC50 is 7.67 µM.

As for `Oc1c(Br)cc(Br)cc1/C=N/c1nc2c(s1)CCCC2`, the EC50 is 5.86 µM.

Turning to `CNC(=S)N1CCN(c2c(F)cc3c(=O)c(C(=O)O)cn(C4CC4)c3c2OC)CC1C` (stereo unspecified), the concentration giving a half-maximal response (EC50) is 0.16 µM.

Take `CCN1CCN(C(=O)N[C@@H](C(=O)N[C@@H]2C(=O)N3[C@@H]2SC(C)(C)[C@@H]3C(=O)O)c2ccccc2)C(=O)C1=O`: the half-maximal effective concentration (EC50) is 0.285 µM.

`O=[N+]([O-])c1ccc(S(=O)(=O)Nc2ccc(-c3csc(-c4ccccc4)n3)cc2)cc1`: the concentration giving a half-maximal response (EC50) is 2.79 µM.

As to `CN(CC1CCCO1)S(=O)(=O)c1ccc(C(=O)Nc2nnc(-c3ccccc3)o2)cc1` (stereo unspecified), the half-maximal effective concentration (EC50) was 2.62 µM.

`CCCCCNC(=O)c1ccc2c(=O)[nH]c3c(C(=O)NCC4CCCO4)sc(=S)n3c2c1` (stereo unspecified): the EC50 is 2.17 µM.

For `CC(C)CN(C(=O)COc1ccc(-c2nnco2)cc1)C1CCS(=O)(=O)C1` (stereo unspecified), the EC50 is > 15 µM (inactive).

In the case of `O=C(O)CCCNc1cc(N2CCN(C(=O)c3ccco3)CC2)c2noc3c2c1C(=O)c1ccccc1-3`, the concentration for a half-maximal effect (EC50) is 6.02 µM.

Take `COc1ccc(C(=O)OCC(=O)Nc2nnc(-c3ccccc3)o2)cc1`: the EC50 is 6.54 µM.

On to `N#CC1=C(N)OC2=C(CCc3ccccc32)C1c1ccccc1Cl` (stereo unspecified), for which the half-maximal effective concentration (EC50) is 3.82 µM.

With `COc1ccccc1N1CCN(C(=O)/C=C/c2c(Cl)nc3ccccn23)CC1`, the EC50 was 1.6 µM.

Consider `CSc1ccc(/C=C/c2ccc3cccc(O)c3n2)cc1`, for which the EC50 is 1.97 µM.

`COCc1cc(=O)[nH]c(Nc2nc3ccc(C)cc3o2)n1`: the EC50 was 2.27 µM.

With `CCn1cnc2c1c(=O)n(CC(=O)Nc1cc(C)on1)c(=O)n2Cc1ccccc1`, the EC50 was > 15 µM (inactive).

For the compound `Cc1cc(=O)[nH]c(SCC(=O)Nc2ccc(Br)cc2)c1C#N`, the EC50 was 9.7 µM.

Consider `COC(=O)c1c(NC(=O)c2ccn(C)n2)sc2c1CCC2`, for which the EC50 was > 15 µM (inactive).

Take `CCOC(=O)CC(NC(=O)CCS(=O)(=O)c1ccc2c(c1)n(C)c(=O)c(=O)n2C)c1ccc(C)cc1` (stereo unspecified): the EC50 was > 15 µM (inactive).

Regarding `COc1c(N2CCN(C(=S)Nc3ccccc3F)C(C)C2)c(F)cc2c(=O)c(C(=O)O)cn(C3CC3)c12` (stereo unspecified), the 50% effective concentration (EC50) was 2.67 µM.

With `O=C(Cc1ccccc1)N/N=C/c1cc(Br)cc(Cl)c1O`, the EC50 is 1.52 µM.

Consider `COc1ccccc1CN1CN(S(=O)(=O)c2ccccc2)c2nc3ccccc3nc21`, for which the EC50 is 5.13 µM.

For `O=C(O)c1ccc(N/N=C/c2ccc(OC(=O)c3ccccc3Cl)cc2)cc1`, the concentration for a half-maximal effect (EC50) was 5.02 µM.

Regarding `O=C1Nc2cc(C(=O)N3CCN(c4ccccn4)CC3)ccc2S/C1=C\c1ccccc1`, the half-maximal effective concentration (EC50) is 3.35 µM.

`CC(C)(C)c1ccc(C(=O)NC(=S)NNC(=O)COc2ccccc2)cc1`: the EC50 was less than 0.06 µM.

As to `Fc1ccc(-c2csc3ncnc(N4CCc5ccccc5C4)c23)cc1`, the EC50 was 2.73 µM.

Regarding `COc1cc([N+](=O)[O-])cc(/C=N/NC(=O)c2ccc(C)nc2)c1O`, the half-maximal effective concentration (EC50) is 2.61 µM.

Take `CC(C)Sc1cc(N2CCCC2)nc(-c2ccc(F)cc2)n1`: the concentration for a half-maximal effect (EC50) is 5.9 µM.

Take `Cc1cc([N+](=O)[O-])cc(/C=N\NC(=O)C2COc3ccccc3O2)c1O` (stereo unspecified): the EC50 is 1.52 µM.

`O=C(N/N=C/c1ccc([N+](=O)[O-])o1)c1cc(-c2cccc(Br)c2)nc2ccccc12`: the EC50 is 0.422 µM.

As for `O=c1cc(-c2ccccc2Cl)oc2ccc([N+](=O)[O-])c(O)c12`, the EC50 is 3.25 µM.

In the case of `Cc1onc(-c2ccccc2)c1C(=O)NC(=S)NNC(=O)c1ccco1`, the EC50 is 0.943 µM.

As to `O=C(NCc1ccccc1)C(=O)Nc1nc(-c2ccccc2)cs1`, the EC50 is 5.23 µM.

On to `N/C(=N\NC(=O)c1sccc1OCc1ccc(Cl)cc1Cl)c1ccccn1`, for which the EC50 was 3.32 µM.

Turning to `O=[N+]([O-])c1ccc(-c2cnc(SC(c3ccccc3)c3ccccc3)[nH]2)cc1`, the concentration giving a half-maximal response (EC50) is 11 µM.

Consider `O=C(O)CSCC(=O)N(Cc1ccccc1)c1nc(-c2ccccc2)c(-c2ccccc2)s1`, for which the EC50 was 1.58 µM.

As to `COc1ccc(C2/C=C\CN(C(=O)c3ccccc3)CC(=O)N2Cc2ccc(F)cc2)cc1` (stereo unspecified), the EC50 was > 15 µM (inactive).

With `O=C(CC1CCCCC1)c1c(O)c2ccccc2oc1=O`, the EC50 was 3.54 µM.

As to `COc1ccc(S(=O)(=O)Nc2cc3c4c(oc3c3ccccc23)CC(C)(C)CC4=O)cc1`, the EC50 was 6.26 µM.

Consider `COc1ccc(C(=O)NC(=S)NNC(=O)c2c(-c3ccccc3)noc2C)cc1OC`, for which the EC50 is 0.506 µM.

With `CCc1ccc(OCC(=O)NNC(=S)NC(=O)C2CCCCC2)c(Br)c1`, the concentration for a half-maximal effect (EC50) is less than 0.06 µM.

For the compound `Cc1cccc(-c2oc3ccccc3c2C#CCCCCO)c1`, the EC50 was 5.72 µM.

As to `CC(C)(C)c1ccc(C(=O)Nc2ccc(F)cc2)s1`, the EC50 is > 15 µM (inactive).

Consider `Cc1ccc2nc(/N=C(\N)NC(=O)NC3CCCCC3)nc(C)c2c1`, for which the half-maximal effective concentration (EC50) is 1.15 µM.

For the compound `O=C(Nc1nnc(C2=COCCO2)o1)c1ccc(Cc2ccccc2)cc1`, the EC50 was 1.47 µM.

In the case of `Cc1cc(/C=N/n2cnnc2)c(C)n1-c1ccc(OCc2ccc(Cl)cc2Cl)cc1`, the 50% effective concentration (EC50) was 2.1 µM.

On to `O=C(CNc1cccc2ccccc12)N/N=C/c1ccc([N+](=O)[O-])o1`, for which the concentration for a half-maximal effect (EC50) was 1.12 µM.

Turning to `CCOC(=O)c1sc(NC(=O)c2cc(-c3ccccc3C)nc3ccccc23)c(C#N)c1C`, the concentration for a half-maximal effect (EC50) is 1.36 µM.

With `Cc1cccc(C)c1NC(=O)CN(C)CC(=O)Nc1sc2c(c1C(N)=O)CCC2`, the EC50 was > 15 µM (inactive).

On to `Cc1ccc(-n2c(-c3ccc(Br)cc3)c[n+]3c2CCc2ccc4cccnc4c2-3)cc1`, for which the half-maximal effective concentration (EC50) was 3.6 µM.

`S=c1nc2ccccc2c2nc(-c3ccccc3)[nH]n12`: the EC50 was 5.36 µM.

With `O=C1c2cccc3cccc(c23)C(=O)N1CC1CCN(CC(O)COc2ccc3ccccc3c2)CC1` (stereo unspecified), the 50% effective concentration (EC50) is 6.84 µM.

For the compound `Cc1ccc(Sc2cc(C)nc(-c3ccccn3)n2)cc1`, the EC50 was 12.4 µM.

With `CCCCC(=O)NNC(=S)NC(=O)C(c1ccccc1)c1ccccc1`, the concentration giving a half-maximal response (EC50) is 0.188 µM.
